{"source": "paper PMC8955197", "about": "“Polyketide Derivatives from the Endophytic Fungus Phaeosphaeria sp. LF5 Isolated from Huperzia serrata and Their Acetylcholinesterase Inhibitory Activities” (Journal of Fungi, 2022)"}
{"molecular_target": "AChE (Homo sapiens, UniProt P22303)", "sequence (P22303 32-614)": "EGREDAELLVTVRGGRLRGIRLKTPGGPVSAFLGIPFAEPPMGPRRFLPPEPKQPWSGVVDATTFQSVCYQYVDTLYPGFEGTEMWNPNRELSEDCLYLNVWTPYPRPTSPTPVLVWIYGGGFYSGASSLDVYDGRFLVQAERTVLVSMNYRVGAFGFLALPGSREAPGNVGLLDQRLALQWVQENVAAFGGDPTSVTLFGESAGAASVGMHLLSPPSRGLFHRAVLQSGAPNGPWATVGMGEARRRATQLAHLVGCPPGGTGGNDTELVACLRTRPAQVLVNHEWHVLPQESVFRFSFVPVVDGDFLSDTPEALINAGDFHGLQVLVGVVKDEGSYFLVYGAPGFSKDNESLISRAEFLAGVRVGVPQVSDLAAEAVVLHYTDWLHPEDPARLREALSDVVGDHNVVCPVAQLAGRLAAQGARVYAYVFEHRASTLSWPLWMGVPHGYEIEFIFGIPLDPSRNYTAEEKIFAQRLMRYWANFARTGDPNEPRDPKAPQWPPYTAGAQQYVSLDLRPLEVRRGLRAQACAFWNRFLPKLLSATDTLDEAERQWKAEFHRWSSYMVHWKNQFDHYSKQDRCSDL", "test": "biochemical", "settings": "mean ± SD of three parallel measurements; phosphate buffer pH 7.7, 25 °C; read-out: IC50 (µM), acetylcholinesterase inhibitory activity", "protocol": "The assay was carried out in a 96-well microtiter plate reader. […] The mixture was incubated for 5 min at 25 °C. […] Percent inhibition was calculated through the following formula: (control absorbance–sample absorbance)/control absorbance × 100. The IC50 values were the means ± SD of three determinations.", "units": {"IC50": "µM"}}
{"molecule": "CC(O)C(O)c1cc2cc(O)cc(O)c2c(=O)o1", "note": "(stereo not drawn) [Compound 9, 6,8-dihydroxy-3-(1′R, 2′R-dihydroxypropyl)-isocoumarin]", "IC50": "> 100"}
{"molecule": "CC1C=C(CC(=O)O)C(=O)O1", "note": "(centres unmarked) [Compound 2, 2-(5-methyl-2-oxo-2,5-dihydrofuran-3-yl)-acetic acid]", "IC50": "> 100"}
{"molecule": "Cc1cc(C(=O)O)cc(C(C)O)n1", "note": "(centres unmarked) [Compound 7, 2-(1-hydroxyethyl)-6-methylisonicotinic acid]", "IC50": "> 100"}
{"molecule": "COC(=O)CC1=CC(C)OC1=O", "note": "(centres unmarked) [Compound 3, methyl-2-(5-methyl-2-oxo-2,5-dihydrofuran-3-yl)-acetate]", "IC50": "> 100"}
{"molecule": "C[C@@H](O)Cc1cc2cc(O)cc(O)c2c(=O)o1", "note": "[Compound 11, de-O-methyldiaporthin]", "IC50": "21.2 ± 1.53"}
{"molecule": "C[C@@H]1C=C(C[C@@H](O)[C@H](C)O)C(=O)O1", "note": "[Compound 4]", "IC50": "6.26 ± 0.15"}
{"molecule": "CC1=CC(=O)OCC1", "note": "[Compound 6, 4-methyl-5,6-dihydropyren-2-one]", "IC50": "> 100"}
{"molecule": "C/C(=C\\C(=O)O)CCO", "note": "[Compound 5, E-Δ^2-anhydromevalonic acid]", "IC50": "> 100"}
{"molecule": "C[C@@H]1Cc2cc(O)cc(O)c2C(=O)O1", "note": "[Compound 8, (R)-6-hydroxymellein]", "IC50": "> 100"}
{"molecule": "CC1C=C(CO)C(=O)O1", "note": "(centres unmarked) [Compound 1, 3-(hydroxymethyl)-5-methylfuran-2(5H)-one]", "IC50": "> 100"}
{"molecule": "COc1cc(O)cc2cc(C)oc(=O)c12", "note": "[Compound 10, 6-hydroxy-8-methoxy-3-methylisocoumarin]", "IC50": "> 100"}
